Assay results published in PubChem BioAssay AID1259408 (Genetic Toxicology Data Bank (GENE-TOX), 2018).
The source made the active and inactive calls. No rule for the calls is given here.

System: GENE-TOX genotoxicity assays, various organisms and cells
Assay: GENE-TOX mutagenicity studies
Details: for call: Assay Type: In vivo carcinogenicity studies
[1] = Species/Cell Type: Human lymphocytes, Assay Type: Sister-chromatid exchange (SCE) in vitro, Assay Code: SCL+D, Dose Response: With dose response, Evaluation Type: Evaluation B (Post-1980)
[2] = Species/Cell Type: Human, Assay Type: Sister-chromatid exchange (SCE) in vitro, Assay Code: SC1+D, Dose Response: With dose response, Evaluation Type: Evaluation B (Post-1980)
[3] = Species/Cell Type: Salmonella typhimurium (one or more of the five standard strains: TA98, TA100, TA1535, TA1537, and TA1538), Assay Type: Histidine reverse gene mutation, Ames assay, Assay Code: SAL+*, Activation: With metabolic activation, Evaluation Type: Evaluation A (Pre-1980)

O=C1C=C2C(=CCOC2O)O1 (stereo not given)
mutagenic call (Species/Cell Type: Bacillus subtilis (H17 vs M45), Assay Type: Rec-assay, spot test, DNA effects (bacterial DNA repair), Assay Code: REW+, Evaluation Type: Evaluation A (Pre-1980)): active; positive
mutagenic call [1]: active; positive
mutagenic call [2]: active; positive
mutagenic call (Species/Cell Type: Nonhuman, Assay Type: Chromosome aberrations in vitro, Assay Code: CY&+, Evaluation Type: Evaluation A (Pre-1980)): active; positive
call (Species/Cell Type: Nonhuman, Assay Code: CCGT, Evaluation Type: Evaluation A (Pre-1980)): no conclusion
mutagenic call (Species/Cell Type: Nonhuman, Assay Type: Sister-chromatid exchange (SCE) in vitro, Assay Code: SC2-, Evaluation Type: Evaluation B (Post-1980)): inactive; negative
mutagenic call (Species/Cell Type: Rodents, Sex: Male, Assay Type: Dominant lethal test, Assay Code: DLT-, Evaluation Type: Evaluation A (Pre-1980)): inactive; negative
mutagenic call (Species/Cell Type: Saccharomyces cerevisiae, Assay Type: Mitotic recombination or gene conversion, Assay Code: YEH+/-*, Activation: With metabolic activation, Evaluation Type: Evaluation A (Pre-1980)): inactive; positive without activation, negative with activation
mutagenic call (Species/Cell Type: Salmonella typhimurium (one or more of the five standard strains: TA98, TA100, TA1535, TA1537, and TA1538), Assay Type: Histidine reverse gene mutation, Ames assay, Assay Code: SAL-, Evaluation Type: Evaluation A (Pre-1980)): inactive; negative

CN(C)Cc1cc(Br)ccc1OCC(=O)N/N=C/c1ccccc1
mutagenic call (Species/Cell Type: Saccharomyces cerevisiae, Assay Type: Reverse gene mutation, Assay Code: YERT, Evaluation Type: Evaluation A (Pre-1980)): no conclusion

O[C@@H]1[C@@H]2O[C@@H]2c2ccccc2[C@H]1O
mutagenic call (Species/Cell Type: Escherichia coli polA (W3119 vs P3478), Assay Type: Rec-assay, DNA effects (bacterial DNA repair), Assay Code: RE1+, Evaluation Type: Evaluation A (Pre-1980)): active; positive

CC1CCCCN1N=O (stereo not given)
mutagenic call (Species/Cell Type: Drosophila melanogaster, Assay Type: Aneuploidy, partial sex chromosome loss, chromosome aberrations, Assay Code: DAPT, Evaluation Type: Evaluation A (Pre-1980)): no conclusion
mutagenic call (Species/Cell Type: Drosophila melanogaster, Assay Type: Aneuploidy, whole sex chromosome loss, chromosome aberrations, Assay Code: DAC-M, Evaluation Type: Evaluation A (Pre-1980)): inactive; negative
mutagenic call (Species/Cell Type: Drosophila melanogaster, Assay Type: Sex-linked recessive lethal gene mutation, Assay Code: SRLT, Evaluation Type: Evaluation A (Pre-1980)): no conclusion
mutagenic call (Species/Cell Type: Saccharomyces cerevisiae, Assay Type: Forward gene mutation, Assay Code: YEF+*, Activation: With metabolic activation, Evaluation Type: Evaluation A (Pre-1980)): active; positive
mutagenic call (Species/Cell Type: Saccharomyces cerevisiae, Assay Type: Reverse gene mutation, Assay Code: YER+*, Activation: With metabolic activation, Evaluation Type: Evaluation A (Pre-1980)): active; positive
mutagenic call [3]: active; positive

C=Cc1ccccc1
mutagenic call (Species/Cell Type: Chinese hamster lung (V79) cells, Assay Type: Forward gene mutation at the HPRT or ouabain locus, Assay Code: V79-, Evaluation Type: Evaluation A (Pre-1980)): inactive; negative
mutagenic call (Species/Cell Type: Drosophila melanogaster, Assay Type: Sex-linked recessive lethal gene mutation, Assay Code: SRL+, Evaluation Type: Evaluation A (Pre-1980)): active; positive
mutagenic call (Species/Cell Type: Human diploid fibroblasts, Assay Type: Unscheduled DNA synthesis (UDS) in vitro, DNA effects, Assay Code: UDH-*, Activation: With metabolic activation, Evaluation Type: Evaluation A (Pre-1980)): inactive; negative
mutagenic call (Species/Cell Type: Human lymphocytes or leukocytes, Assay Type: Chromosome aberrations in vivo, Assay Code: CY8+, Evaluation Type: Evaluation A (Pre-1980)): active; positive
mutagenic call (Species/Cell Type: Human lymphocytes, Assay Type: Micronucleus test in vitro, chromosome aberrations, Assay Code: MN7+, Evaluation Type: Evaluation A (Pre-1980)): active; positive
mutagenic call [1]: active; positive
mutagenic call (Species/Cell Type: Human lymphocytes, Assay Type: Sister-chromatid exchange (SCE) in vivo, Assay Code: SCY+, Evaluation Type: Evaluation B (Post-1980)): active; positive
mutagenic call [2]: active; positive
mutagenic call (Species/Cell Type: Mammalian polychromatic erythrocytes, Assay Type: Micronucleus test, chromosome aberrations, Assay Code: MNT+, Evaluation Type: Evaluation B (Post-1980)): active; positive
call (Species/Cell Type: Nonhuman, Assay Code: CCG+L, Evaluation Type: Evaluation A (Pre-1980)): active; positive
mutagenic call (Species/Cell Type: Nonhuman, Assay Type: Sister-chromatid exchange (SCE) in vivo, Assay Code: SC3+D, Dose Response: With dose response, Evaluation Type: Evaluation B (Post-1980)): active; positive
mutagenic call (Species/Cell Type: Plant, Assay Type: Micronucleus test, chromosome aberrations, Assay Code: MNP+, Evaluation Type: Evaluation A (Pre-1980)): active; positive
mutagenic call (Species/Cell Type: Saccharomyces cerevisiae, Assay Type: Forward and reverse gene mutation, mitotic recombination and gene conversion, host-mediated assay, Assay Code: HME+, Evaluation Type: Evaluation A (Pre-1980)): active; positive
mutagenic call (Species/Cell Type: Saccharomyces cerevisiae, Assay Type: Mitotic recombination or gene conversion, Assay Code: YEC+*, Activation: With metabolic activation, Evaluation Type: Evaluation A (Pre-1980)): active; positive
mutagenic call [3]: active; positive
mutagenic call (Species/Cell Type: Schizosaccharomyces pombe, Assay Type: Forward gene mutation, Assay Code: YEYT, Evaluation Type: Evaluation A (Pre-1980)): no conclusion
mutagenic call (Species/Cell Type: Syrian hamster embryo (SA7/SHE) cells, Assay Type: Cell transformation, viral enhanced, Assay Code: CT7-, Evaluation Type: Evaluation A (Pre-1980)): inactive; negative

Cc1ccc(N2CCN(C)CC2)c2c(=O)c3ccc(Cl)cc3sc12
mutagenic call (Species/Cell Type: Salmonella typhimurium (one or more of the five standard strains: TA98, TA100, TA1535, TA1537, and TA1538), Assay Type: Histidine reverse gene mutation, Ames assay, Assay Code: SALT, Evaluation Type: Evaluation A (Pre-1980)): no conclusion
